Laboratory results as given in patent US20170275261A1, “1,3,4-THIADIAZOLES HAVING A HERBICIDAL ACTIVITY, THEIR AGRONOMICAL COMPOSITIONS AND RELATIVE USE” (ISAGRO S.P.A., priority 2014, published 2017).

Columns and labels:
Type in all cases: in vivo
Conditions in all cases: dose 250 g/ha, fifteen days after treatment, damage vs control
Digitaria sanguinalis [1] = assay: Herbicidal activity in pre-emergence
Experimental: (§1) The herbicidal activity in pre-emergence of the compounds of the invention was evaluated according to the following operating procedures.
(§2) The plant species of interest (weeds or crops) were seeded in vases having an upper diameter of 10 cm, a height of 10 cm and containing sandy earth. 10 vases were used for each plant species.
(§3) Water was added to each vase in a suitable quantity for the germination of the seeds. The vases were then divided into two groups, each containing 5 vases for each weed or crop.
(§4) One day after seeding, the first group of vases was treated with a dispersion having the following composition:
(§5) Said dispersion was prepared by adding a compound of the present invention at the desired concentration to a hydroacetonic solution containing acetone at 20% by volume and Tween 20 at 0.5% by weight, with respect to the total weight of the dispersion.
(§6) The desired concentration of a compound of the present invention corresponds to the concentration necessary for allowing the application of an effective dose of said compound equal to 250 g/ha to the plant species of interest.
(§7) The second group was only treated with a hydroacetonic solution containing acetone at 20% by volume and Tween 20 at 0.5% by weight, and was used as a comparison (control).
(§8) All the vases were kept under observation in a conditioned environment under the following environmental conditions: • temperature: 24° C.; • relative humidity: 60%; • photo-period: 16 hours; • light intensity: 12,000 lux.
(§9) Every two days the vases were uniformly watered to ensure a sufficient humidity degree for a good growth of the plants.

Alopecurus myosuroides [2] = assay: Herbicidal activity in pre-emergence
Experimental: as §1, §2, §3, §4, §5, §6, §7, §8, §9

Poa Annua [3] = assay: Herbicidal activity in pre-emergence
Experimental: as §1, §2, §3, §4, §5, §6, §7, §8, §9

Eleusine indica [4] = assay: Herbicidal activity in pre-emergence
Experimental: as §1, §2, §3, §4, §5, §6, §7, §8, §9

Echinochloa crusgalli [5] = assay: Herbicidal activity in pre-emergence
Experimental: as §1, §2, §3, §4, §5, §6, §7, §8, §9

Lolium rigidum [6] = assay: Herbicidal activity in pre-emergence
Experimental: as §1, §2, §3, §4, §5, §6, §7, §8, §9

Apera spica-venti [7] = assay: Herbicidal activity in pre-emergence
Experimental: as §1, §2, §3, §4, §5, §6, §7, §8, §9

Setaria viridis [8] = assay: Herbicidal activity in pre-emergence
Experimental: as §1, §2, §3, §4, §5, §6, §7, §8, §9

Digitaria sanguinalis [9] = assay: Herbicidal activity in post-emergence
Experimental: (§10) The herbicidal activity in post-emergence of the compounds of the invention was evaluated according to the following operating procedures.
as §2, §3, §7, §8, §9

Alopecurus myosuroides [10] = assay: Herbicidal activity in post-emergence
Experimental: as §10, §2, §3, §7, §8, §9

Poa Annua [11] = assay: Herbicidal activity in post-emergence
Experimental: as §10, §2, §3, §7, §8, §9

Eleusine indica [12] = assay: Herbicidal activity in post-emergence
Experimental: as §10, §2, §3, §7, §8, §9

Echinochloa crusgalli [13] = assay: Herbicidal activity in post-emergence
Experimental: as §10, §2, §3, §7, §8, §9

Lolium rigidum [14] = assay: Herbicidal activity in post-emergence
Experimental: as §10, §2, §3, §7, §8, §9

Apera spica-venti [15] = assay: Herbicidal activity in post-emergence
Experimental: as §10, §2, §3, §7, §8, §9

Setaria viridis [16] = assay: Herbicidal activity in post-emergence
Experimental: as §10, §2, §3, §7, §8, §9

Structure (SMILES)	Herbicidal activity in pre-emergence (Digitaria sanguinalis [1])	Herbicidal activity in pre-emergence (Alopecurus myosuroides [2])	Herbicidal activity in pre-emergence (Poa Annua [3])	Herbicidal activity in pre-emergence (Eleusine indica [4])	Herbicidal activity in pre-emergence (Echinochloa crusgalli [5])	Herbicidal activity in pre-emergence (Lolium rigidum [6])	Herbicidal activity in pre-emergence (Apera spica-venti [7])	Herbicidal activity in pre-emergence (Setaria viridis [8])	Herbicidal activity in post-emergence (Digitaria sanguinalis [9])	Herbicidal activity in post-emergence (Alopecurus myosuroides [10])	Herbicidal activity in post-emergence (Poa Annua [11])	Herbicidal activity in post-emergence (Eleusine indica [12])	Herbicidal activity in post-emergence (Echinochloa crusgalli [13])	Herbicidal activity in post-emergence (Lolium rigidum [14])	Herbicidal activity in post-emergence (Apera spica-venti [15])	Herbicidal activity in post-emergence (Setaria viridis [16])
Cc1nnc([S+]([O-])Cc2c(Cl)cccc2Cl)s1 (stereo not shown) [Nr. 1, 2-[(2,6-dichlorobenzyl)-sulfinyl]-5-methyl-1,3,4-thiadiazole]	5 (91% of damage-death of the plant)	4 (71-90% of damage)	5 (91% of damage-death of the plant)	5 (91% of damage-death of the plant)	4 (71-90% of damage)	4 (71-90% of damage)	5 (91% of damage-death of the plant)	4 (71-90% of damage)	5 (91% of damage-death of the plant)	4 (71-90% of damage)	5 (91% of damage-death of the plant)	5 (91% of damage-death of the plant)	4 (71-90% of damage)	4 (71-90% of damage)	5 (91% of damage-death of the plant)	4 (71-90% of damage)
Cc1nnc([S+]([O-])Cc2c(C(F)(F)F)nn(C)c2OCC(F)(F)F)s1 (stereo not shown) [Nr. 9]	5 (91% of damage-death of the plant)	5 (91% of damage-death of the plant)	5 (91% of damage-death of the plant)	5 (91% of damage-death of the plant)	5 (91% of damage-death of the plant)	5 (91% of damage-death of the plant)	5 (91% of damage-death of the plant)	5 (91% of damage-death of the plant)	5 (91% of damage-death of the plant)	5 (91% of damage-death of the plant)	5 (91% of damage-death of the plant)	5 (91% of damage-death of the plant)	5 (91% of damage-death of the plant)	4 (71-90% of damage)	5 (91% of damage-death of the plant)	4 (71-90% of damage)
CCc1nnc([S+]([O-])Cc2c(C(F)(F)F)nn(C)c2OCC(F)(F)F)s1 (stereo not shown) [Nr. 121]	5 (91% of damage-death of the plant)	5 (91% of damage-death of the plant)	5 (91% of damage-death of the plant)	5 (91% of damage-death of the plant)	5 (91% of damage-death of the plant)	5 (91% of damage-death of the plant)	5 (91% of damage-death of the plant)	5 (91% of damage-death of the plant)	5 (91% of damage-death of the plant)	4 (71-90% of damage)	5 (91% of damage-death of the plant)	5 (91% of damage-death of the plant)	5 (91% of damage-death of the plant)	4 (71-90% of damage)	5 (91% of damage-death of the plant)	4 (71-90% of damage)
O=S(=O)(c1nnc(C(F)(F)F)s1)c1c(Cl)cccc1Cl [CR1, 2-(2,6-dichlorophenylsulfonyl)-5-(trifluoromethyl)-1,3,4-thiadiazole, reference compound]	0 (0-10% of damage)	0 (0-10% of damage)	0 (0-10% of damage)	0 (0-10% of damage)	0 (0-10% of damage)	0 (0-10% of damage)	0 (0-10% of damage)	0 (0-10% of damage)	0 (0-10% of damage)	0 (0-10% of damage)	0 (0-10% of damage)	0 (0-10% of damage)	0 (0-10% of damage)	0 (0-10% of damage)	0 (0-10% of damage)	0 (0-10% of damage)
